Reference: paper PMC7144554, “2-(Arylamino)-6-(trifluoromethyl)nicotinic Acid Derivatives: New HIV-1 RT Dual Inhibitors Active on Viral Replication” (Molecules, 2020)
Like-named read-outs stand apart in the source and are kept apart here.

Legend:
[1] = target: T1, HIV-1 RT-associated RNase H activity (wt RT) (Human immunodeficiency virus type 1 group M subtype B, UniProt P04585); test: HIV-1 DNA polymerase-independent RNase H activity, wt RT; format: biochemical; conditions: RNase H IC50, wt RT
T1 construct: RT is a heterodimeric (p66/p51) multifunctional enzyme; made in house; host or cells: Escherichia coli strain M15
Protocol: p6HRT-prot vector was kindly provided by Dr. Stuart Le Grice Laboratory. Heterodimeric RT was expressed essentially as described. Briefly, Escherichia coli strain M15 containing the p6HRT-prot vector were grown up to an OD600 of 0.7 and induced with isopropyl β-D-1-thiogalactopyranoside (IPTG) 1.7 mM for 4 h. Cell pellets were resuspended in Lysis buffer (50 mM sodium phosphate pH 7.8, 0.5 mg/mL lysozyme), incubated on ice for 20 min, added 0.3 M final NaCl, sonicated and centrifuged at 30,000× g for 1 h. The supernatant was loaded into a Ni^2+-sepharose column pre-equilibrated with loading buffer (50 mM sodium phosphate pH 7.8, 0.3 M NaCl, 10% glycerol, 10 mM imidazole) and washed thoroughly with wash buffer (50 mM sodium phosphate pH 6.0, 0.3 M NaCl, 10% glycerol, 80 mM imidazole). RT was gradient-eluted with elute buffer (wash buffer with 0.5 M imidazole). Fractions were collected, protein purity was checked by SDS-PAGE and found to be higher than 90%. RT containing fractions were pooled and diluted 1:1 with dilute buffer (50 mM sodium phosphate pH 7.0, 10% glycerol) then loaded into a Hi-trap Heparine HP GE (Healthcare Lifescience) pre-equilibrated with 10-column volume of loading buffer 2 (50 mM sodium phosphate pH 7.0, 10% glycerol, 150 mM NaCl). Column was then washed with loading buffer 2 and RT was gradient-eluted with elute buffer 2 (50 mM sodium phosphate pH 7.0, 10% glycerol, 150 mM NaCl). Fractions were collected, protein was dialyzed and stored in buffer containing 50 mM Tris HCl pH 7.0, 25 mM NaCl, 1 mM EDTA, 50% glycerol. Catalytic activities and protein concentration were determined. Enzyme-containing fractions were pooled and aliquots were stored at −80 °C.
The RT-associated RNase H activity of wt and mutated HIV RTs was measured as described, in 100 µL reaction volume containing 50 mM Tris HCl pH 7.8, 6 mM MgCl2, 1 mM dithiothreitol (DTT), 80 mM KCl, hybrid RNA/DNA (5’-[…]-3’-Fluorescein, 5’-[…]-3’-Dabcyl), and different amounts of enzymes according to a linear range of dose-response curve—20 ng of wt RT; 50 ng K103N RT; 100 ng V108A RT; 4 ng Y181C RT; 100 ng Q475A RT; 100 ng A502F RT. The reaction mixture was incubated for 1 h at 37 °C, the reaction was stopped by addition of EDTA and products were measured with a Victor 3 (Perkin) at 490/528 nm.

HIV-1 IIIB strain = test: Antiviral assay, HIV-1 replication in TZMbl cells (luciferase); format: cell-based; conditions: for EC50: read-out: HIV-1 EC50 TZMbl Cells
Protocol: Drug-mediated inhibition of virus-induced cytotoxicity was assayed in TZM-BL cells. […] Serial dilutions of drugs were added immediately after infection. Luciferase activity was measured as reported [67]. Two days after infection, the culture medium was removed from each well and 100 µl of Bright Glo reagent (Promega, Luis Obispo, CA) was added to the cells for measurement of luminescence using a Victor 2 luminometer (Perkin). […] Cell viability in CEM cells was quantified 5 days after infection with the MTT-dye reduction method.

TZMbl cells = test: Cytotoxicity in TZMbl cells; format: cell-based; conditions: highest concentration tested
[2] = Cytotoxicity in TZMbl cells; format: cell-based; conditions: human
[3] = Cell viability in CEM cells (MTT); format: cell-based; conditions: human, MTT, 5 days
Protocol: (§1) Drug-mediated inhibition of virus-induced cytotoxicity was assayed in TZM-BL cells. Triplicate wells of 96-well plates containing 1 × 10^4 TZMbl cells were infected with HIV-1 IIIB strain at a multiplicity of infection of 0.1. Serial dilutions of drugs were added immediately after infection. Luciferase activity was measured as reported. Two days after infection, the culture medium was removed from each well and 100 µl of Bright Glo reagent (Promega, Luis Obispo, CA) was added to the cells for measurement of luminescence using a Victor 2 luminometer (Perkin). The 50% effective concentration (EC50) was defined as the concentration that caused a 50% reduction of luciferase activity (relative light units) compared to virus control wells. Cell viability in CEM cells was quantified 5 days after infection with the MTT-dye reduction method.

CEM cells = test: Cell viability in CEM cells (MTT); format: cell-based; conditions: highest concentration tested
Protocol: as §1

[4] = Human immunodeficiency virus 1, TZM-bl, TZMbl cells, HIV-1 IIIB

CCOC(=O)c1ccc(C(F)(F)F)nc1Nc1cc(Cl)ccc1C [Compound 9]
IC50 [1]: 24 ± 1.7 µM
EC50 (HIV-1 IIIB strain; [4]): > 10 µM
percentage of cells viability in presence of the highest concentration of inhibitor tested, TZMbl (TZMbl cells): 75%
CC50 [2]: > 50 µM
CC50 at 5 days [3]: > 50 µM
percentage of cells viability in presence of the highest concentration of inhibitor tested, CEM cells (CEM cells): 100%

Cc1ccc(Cl)cc1Nc1nc(C(F)(F)F)ccc1C(=O)Oc1ccc(Cl)cc1 [Compound 13]
IC50 [1]: 9.3 ± 2.5 µM
EC50 (HIV-1 IIIB strain; [4]): 10 µM
SI (selectivity index) (HIV-1 IIIB strain; TZMbl cells): 3.6
CC50 [2]: 36 ± 1 µM
CC50 at 5 days [3]: > 50 µM
percentage of cells viability in presence of the highest concentration of inhibitor tested, CEM cells (CEM cells): 70%

Cc1ccc(Cl)cc1Nc1nc(C(F)(F)F)ccc1C(=O)Oc1ccccc1O [Compound 16, 2-Hydroxyphenyl 2-((5-chloro-2-methylphenyl)amino)-6-(trifluoromethyl)nicotinate]
IC50 [1]: 16.2 ± 6.6 µM
melting point: 179 to 180 °C
EC50 (HIV-1 IIIB strain; [4]): > 10 µM
CC50 [2]: 12.2 ± 2.1 µM
CC50 at 5 days [3]: > 12.5 µM
percentage of cells viability in presence of the highest concentration of inhibitor tested, CEM cells (CEM cells): 100%

CSc1ccc(OC(=O)c2ccc(C(F)(F)F)nc2Nc2cc(Cl)ccc2C)cc1 [Compound 24, 4-(Methylthio)phenyl 2-((5-chloro-2-methylphenyl)amino)-6-(trifluoromethyl)nicotinate]
IC50 [1]: 9.6 ± 0.8 µM
melting point: 125 to 127 °C
EC50 (HIV-1 IIIB strain; [4]): > 10 µM
CC50 [2]: 50 µM
CC50 at 5 days [3]: > 50 µM
percentage of cells viability in presence of the highest concentration of inhibitor tested, CEM cells (CEM cells): 100%

COc1ccccc1CNC(=O)c1ccc(C(F)(F)F)nc1Nc1cc(Cl)ccc1C [Compound 39, 2-((5-Chloro-2-methylphenyl)amino)-N-(2-methoxybenzyl)-6-(trifluoromethyl)nicotinamide]
IC50 [1]: 18.7 ± 1.7 µM
melting point: 148 to 150 °C
EC50 (HIV-1 IIIB strain; [4]): > 10 µM
CC50 [2]: 14.8 ± 3.1 µM
CC50 at 5 days [3]: > 12.5 µM
percentage of cells viability in presence of the highest concentration of inhibitor tested, CEM cells (CEM cells): 55%

Cc1ccc(Cl)cc1Nc1nc(C(F)(F)F)ccc1C(=O)NCc1ccc(Cl)cc1Cl [Compound 45, 2-((5-Chloro-2-methylphenyl)amino)-N-(2,4-dichlorobenzyl)-6-(trifluoromethyl)nicotinamide]
IC50 [1]: 19.3 ± 0.6 µM
melting point: 153 to 155 °C
EC50 (HIV-1 IIIB strain; [4]): > 10 µM
CC50 [2]: 5 ± 0.6 µM
CC50 at 5 days [3]: 9.15 µM

Cc1ccc(Cl)cc1Nc1nc(C(F)(F)F)ccc1C(=O)NCc1ccc(Cl)c(Cl)c1 [Compound 46, 2-((5-Chloro-2-methylphenyl)amino)-N-(3,4-dichlorobenzyl)-6-(trifluoromethyl)nicotinamide]
IC50 [1]: 25.6 ± 3.4 µM
melting point: 179 to 180 °C
EC50 (HIV-1 IIIB strain; [4]): > 6.3 µM
CC50 [2]: 6.3 ± 1.3 µM
CC50 at 5 days [3]: 10.6 µM

COc1cc(CNC(=O)c2ccc(C(F)(F)F)nc2Nc2cc(Cl)ccc2C)ccc1O [Compound 47, 2-((5-Chloro-2-methylphenyl)amino)-N-(4-hydroxy-3-methoxybenzyl)-6-(trifluoromethyl)nicotinamide]
IC50 [1]: 18.2 ± 1.7 µM
melting point: 142 to 143 °C
EC50 (HIV-1 IIIB strain; [4]): > 10 µM
CC50 [2]: 15 ± 3 µM
CC50 at 5 days [3]: 17.4 µM

Cc1ccc(Cl)cc1Nc1nc(C(F)(F)F)ccc1C(=O)N1CCN(c2ccc(Cl)c(Cl)c2)CC1 [Compound 52, (2-((5-Chloro-2-methylphenyl)amino)-6-(trifluoromethyl)pyridin-3-yl)(4-(3,4-dichlorophenyl)piperazin-1-yl)methanone]
IC50 [1]: 7.5 ± 2 µM
melting point: 165 to 167 °C
EC50 (HIV-1 IIIB strain; [4]): 10 ± 1.2 µM
SI (selectivity index) (HIV-1 IIIB strain; TZMbl cells): 1.6
CC50 [2]: 15.7 ± 5.1 µM
CC50 at 5 days [3]: > 50 µM
percentage of cells viability in presence of the highest concentration of inhibitor tested, CEM cells (CEM cells): 76%

O=C1Nc2ccc(Cl)cc2[C@@](C#CC2CC2)(C(F)(F)F)O1 [EFV, efavirenz, reference compound]
EC50 (HIV-1 IIIB strain; Human immunodeficiency virus 1, IIIB, TZM-bl): 0.15 ± 0.02 µM
percentage of cells viability in presence of the highest concentration of inhibitor tested, TZMbl (TZMbl cells): 100%
CC50 [2]: > 50 µM
CC50 at 5 days [3]: > 50 µM
percentage of cells viability in presence of the highest concentration of inhibitor tested, CEM cells (CEM cells): 100%
